According to PMC12362615, “Design, Synthesis, and Cellular Characterization of a New Class of IPMK Kinase Inhibitors” (Journal of Medicinal Chemistry, 2025):
“And” between values parts separate entries of the source, which are not always exact repeats. Identical values can stand only once. Like-named read-outs stand apart in the source and are kept apart here.

How the values were obtained:
[1] = test system: purified recombinant human IPMK kinase domain; test: IPMK IC50 determination, Kinase-Glo assay; assay type: biochemical; conditions: for decrease of inhibitory activity toward IPMK compared to 1: compared to compound 1
Source text: (§1) These assay conditions were optimized with respect to reaction time, IPMK enzyme concentration, and IP3 concentration to determine the IC50 values for these ATP-competitive compounds.

[2] = biological target: T1, purified recombinant human IPMK kinase domain (Homo sapiens, UniProt Q8NFU5); test: IPMK IC50 determination, Kinase-Glo assay; assay type: biochemical
T1 sequence (Q8NFU5 with tags, fused parts or gaps): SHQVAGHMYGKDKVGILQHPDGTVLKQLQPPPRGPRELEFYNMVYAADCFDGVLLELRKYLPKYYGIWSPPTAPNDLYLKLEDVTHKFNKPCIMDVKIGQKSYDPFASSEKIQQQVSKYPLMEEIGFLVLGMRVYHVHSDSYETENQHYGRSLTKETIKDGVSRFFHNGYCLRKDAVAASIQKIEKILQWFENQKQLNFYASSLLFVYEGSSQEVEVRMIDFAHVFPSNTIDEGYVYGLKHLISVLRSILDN
Source text: as §1

[3] = biological target: T2, purified recombinant human IP6K2 kinase domain (Homo sapiens, UniProt Q9UHH9); test: IP6K2 IC50 determination, malachite green Pi release assay; assay type: biochemical; conditions: for IP6K2/IPMK: Table S1, ratio of IC50 values; for IC50: supplementary csv
T2 sequence (Q9UHH9 1-426): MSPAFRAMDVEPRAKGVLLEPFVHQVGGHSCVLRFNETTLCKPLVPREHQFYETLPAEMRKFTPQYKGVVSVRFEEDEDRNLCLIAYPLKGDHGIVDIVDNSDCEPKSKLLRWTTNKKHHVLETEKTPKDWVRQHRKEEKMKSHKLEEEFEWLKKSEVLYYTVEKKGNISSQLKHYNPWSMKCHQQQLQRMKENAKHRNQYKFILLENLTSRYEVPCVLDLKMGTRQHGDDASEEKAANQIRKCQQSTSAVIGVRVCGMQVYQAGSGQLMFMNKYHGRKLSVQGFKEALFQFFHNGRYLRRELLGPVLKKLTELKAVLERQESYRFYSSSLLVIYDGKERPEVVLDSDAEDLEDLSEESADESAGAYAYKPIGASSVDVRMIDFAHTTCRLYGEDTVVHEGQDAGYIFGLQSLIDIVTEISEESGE
Method: IP6K2 IC50 values were determined using the purified recombinant human IP6K2 kinase domain expressed in a 384-well clear polystyrene plate (VWR 82051-264). This human IP6K2 kinase domain (100 nM) was used at 37 °C in 50 μL reaction mixtures containing 5.0 μM human Dipp1, 50 mM Tris (pH 6.9), 10 mM MgCl2, 0.02% Triton X-100, 25 μM InsP6, and 50 μM ATP for 30 min. Pi release was determined with a malachite green colorimetric assay. Reactions were quenched by the addition of 12.5 μL of phosphate detection reagent (MAK3071KT, Sigma-Aldrich). Pi release was quantified from the absorbance at 620 nm by using appropriate standards.

[4] = test system: inositol phosphate levels in U251-MG cells; test: 3H-inositol metabolic labeling and HPLC of inositol phosphates; assay type: cell-based, human; conditions: 400 nM, 48 h, vs DMSO
Method: Human U251-MG glioblastoma cells (ECACC 09063001) were grown in DMEM supplemented with 10% FBS. The medium was changed to inositol-free DMEM, and cells were inositol-starved for 1–3 days. Cells were maintained in inositol-free DMEM medium, treated with the indicated inhibitor or DMSO for 1–2.5 h, and supplemented with 100 μCi ^3H-inositol (PerkinElmer) for 48 or 72 h, as indicated on each figure. Cells were then washed in PBS and lysed in 200 μL HCl (0.5 M), 250 μL of MeOH was added to each well of a 6-well plate (approximately 10^6 cells), followed by 125 μL of 2 M KCl. Lysates were scraped and sonicated on ice for three 1 min cycles. Inositol phosphate (IP) extracts were cleaned of lipids by adding 250 μL of CHCl3, vortexing and centrifuging samples for 2 min at 5000 rpm to separate upper aqueous and lower organic phases, upper phase contains soluble IPs. This extraction was repeated once. Samples were dried in a SpeedVac, resuspended in 10 mM ammonium phosphate (pH= 3.5), and filtered. HPLC separation and detection of the inositol species on the upper phase used a Partisphere SAX 4.6 mm × 250 mm column, eluted with 10 mM (buffer A) to 1.3 M (buffer B) ammonium phosphate (pH = 3.8) and online flow scintillation analyzer (FSA, PerkinElmer). Elution of [^32P]-labeled IP4, IP5, and IP6 standards confirmed the identity of each peak off the HPLC. Quantification represents three biologically independent metabolic labeling samples with error representing the standard deviation of the mean.

[5] = test system: human U251-MG glioblastoma cells; test: CyQuant cell count / proliferation assay; assay type: cell-based; conditions: 400 nM, 48 h, vs DMSO
Method: 1 Compound 1 inhibits human U251 glioblastoma cell growth and labeled inositol phosphate levels. (A) Schematic of inositol phosphate metabolism. (B) Chemical structure of compound 1, indicating moiety A (blue highlight), the core (gray highlight), and moiety B (red highlight), and the IC50 value as determined by the kinase-GLO assay. (C) CyQuant cell count assay of 10,000 human U251-MG glioblastoma cells seeded per well, treated for 48 h with DMSO vehicle or 400 nM compound 1 (n = 8, ***p = 0.0046, unpaired t test). (D) HPLC analysis of ^3H-inositol phosphates from U251-MG cells treated with 400 nM compound 1 (red bars) or DMSO (blue bars) and metabolically labeled with ^3H-inositol for 48 h, expressed as the percentage of the inositol peak from the HPLC for InsP3, InsP4, InsP5, and InsP6, as indicated, *p < 0.05 by unpaired t test Bonferroni corrected for multiple comparisons. (E) Same data as in (D) replotted with a nonzero y-axis to facilitate visualizing differences between DMSO vs. compound treatment for each indicated inositol phosphate species, *p < 0.05 by unpaired t test Bonferroni corrected for multiple comparisons.
Error represents the standard error from 3 independent assays. (B) CyQuant cellular proliferation assay of 10,000 human U251-MG glioblastoma cells seeded per well, treated for 48 h with DMSO vehicle or 10 μM 14 (n = 8, ****p adj < 0.0001 by one-way ANOVA, Dunnett’s corrected; *p < 0.05 by unpaired t test). (C) HPLC analysis of ^3H-inositol phosphates from U251-MG cells treated with 10 μM compound 14 (red bars) or DMSO (blue bars) and metabolically labeled with ^3H-inositol for 48 h, expressed as a percentage of all the peaks detectable from the HPLC, *p < 0.05, **p < 0.01, ***p < 0.001 by unpaired t test compared to DMSO-treated control for all remaining panels, n = 3. (D) Same as (C) but expressed as a percentage of the inositol HPLC peak, n = 3. (E) Same as C but expressed as a percentage of all the inositol phosphate peaks combined from the HPLC, n = 3.

Solubility = assay type: physicochemical
[6] = Pharmacokinetic studies in mice; assay type: in vivo, male CD1 mice; conditions: IV, 3 mg/kg; for AUC(0-t) / Cmax / clearance / half-life / Vd: male, CD1, mouse, plasma; for Vd: read-out: Vss
Method: All the procedures related to animal handling, care, and treatment in this study were performed according to guidelines approved by the Institutional Animal Care and Use Committee (IACUC) of Pharmaron (PK-R-06012023 and PK-M-07182023), following the guidance of the Association for Assessment and Accreditation of Laboratory Animal Care (AAALAC). A group of 3 male CD1 mice (2 for exploratory PK) were dosed intravenously (IV) or intraperitoneally (IP) with a solution formulation of the tested compounds in 10% NMP, 5% Solutol in normal saline (v/v/v, 10:5:85). From each mouse, blood samples ([…]) were collected from the orbital vein such that samples were obtained at 0.083, 0.25, 0.5, 1, 2, 4, 8, and 24 h post dose. At each time point, blood samples were collected from three mice in labeled microcentrifuge tubes containing EDTA-K2 as an anticoagulant. Plasma samples were separated by centrifugation of whole blood and stored at −75 ± 15 °C until bioanalysis. All samples were processed for analysis by precipitation using acetonitrile (ACN) and analyzed with a fit-for-purpose LC/MS/MS method (the below quantifiable limit (BLOQ) was 5.0 ng/mL). Pharmacokinetic parameters were calculated by a noncompartmental analysis model using WinNonlin 8.3.

[7] = supplementary csv, read-out: IPMK IC50
[8] = Kinase-Glo assay, 12.5 μM Ins(1,4,5)P3, 10 μM ATP, read-out: IC50 toward recombinant human IPMK

Row | SMILES | IC50 [2, 7] | IP6K2/IPMK [3] | IC50 [3] | IC50 [2, 8] | AUC(0-t) [6] | Cmax [6] | clearance [6] | half-life [6] | Vd [6] | other results
1 | Cc1cc(C)cc(-c2onc3ccc([C@H]4C[C@@H]4C(=O)O)cc23)c1 (racemic) [Compound 2, (±)-trans-2-(3-(3,5-Dimethylphenyl)benzo[c]isoxazol-5-yl)cyclopropane-1-carboxylic acid] | 166 ± 19.6 nM | 1.6 | 265 ± 20 nM | – | – | – | – | – | – | decrease of inhibitory activity toward IPMK compared to 1 [1]: 6 fold
2 | Cc1cc(C)cc(-c2onc3ccc(/C=C/C(=O)O)cc23)c1 [Compound 1, (E)-3-(3-(3,5-Dimethylphenyl)benzo[c]isoxazol-5-yl)acrylic Acid] | – | 9.5 | 248 ± 119 nM | 26 nM and 26.2 nM | – | – | – | – | – | accumulation of InsP4 [4]: significantly decreased; accumulation of InsP5 [4]: significantly decreased; accumulation of InsP6 [4]: significantly decreased; cell number, CyQuant DNA content assay [5]: significant decrease in cell number
3 | Cc1cc(C)cc(-c2onc3ccc(C(=O)O)cc23)c1 [Compound 3] | 215 ± 37.5 nM | – | – | – | – | – | – | – | – | decrease of inhibitory activity toward IPMK compared to 1 [1]: 8 fold
4 | Cc1cc(C)cc(-c2onc3ccc(-c4nnn[nH]4)cc23)c1 [Compound 4, 3-(3,5-Dimethylphenyl)-5-(1H-tetrazol-5-yl)benzo[c]isoxazole] | 24.7 ± 1.6 nM | 4.6 | 113 ± 69.5 nM | 25 ± 1.6 nM | – | – | – | – | – | improved potency toward IPMK compared to compound 3 ([1]; compared to compound 3): 9 fold; solubility compared to compound 3 (Solubility): improved
5 | c1ccc(-c2onc3ccc(-c4nnn[nH]4)cc23)cc1 [Compound 6, 3-Phenyl-5-(1H-tetrazol-5-yl)benzo[c]isoxazole] | 36 ± 5.5 nM | 3.5 | 125 ± 66.2 nM | – | – | – | – | – | – | –
6 | FC(F)(F)c1ccc(-c2onc3ccc(-c4nnn[nH]4)cc23)cc1 [Compound 7, 5-(1H-Tetrazol-5-yl)-3-(4-(trifluoromethyl)phenyl)benzo[c]isoxazole] | 18.6 ± 1.4 nM | 7.8 | 146 ± 97.1 nM | 19 ± 1.4 nM | – | – | – | – | – | –
7 | FC(F)(F)Oc1ccc(-c2onc3ccc(-c4nnn[nH]4)cc23)cc1 [Compound 8, 5-(1H-Tetrazol-5-yl)-3-(4-(trifluoromethoxy)phenyl)benzo[c]isoxazole] | 18.3 ± 1.6 nM | 5.0 | 91.7 ± 50.9 nM | 18 ± 1.6 nM | 46.9 µM·h | 33 µM | 3.15 mL/min/kg | 0.92 h | 0.26 L/kg | –
8 | c1ccc(Oc2ccc(-c3onc4ccc(-c5nnn[nH]5)cc34)cc2)cc1 [Compound 9, 3-(4-Phenoxyphenyl)-5-(1H-tetrazol-5-yl)benzo[c]isoxazole] | 185 ± 15.5 nM | 5.1 | 942 ± 348 nM | – | – | – | – | – | – | –
9 | O=C(Nc1ccc(-c2onc3ccc(-c4nnn[nH]4)cc23)cc1)C1CC1 [Compound 10, N-(4-(5-(1H-Tetrazol-5-yl)benzo[c]isoxazol-3-yl)phenyl)cyclopropanecarboxamide] | 58.2 ± 3.4 nM | 5.1 | 297 ± 141 nM | 58 ± 3.4 nM | – | – | – | – | – | –
10 | O=C(Nc1cccc(-c2onc3ccc(-c4nnn[nH]4)cc23)c1)C1CC1 [Compound 11, N-(3-(5-(1H-Tetrazol-5-yl)benzo[c]isoxazol-3-yl)phenyl)cyclopropanecarboxamide] | 30.2 ± 1.7 nM | 3.5 | 107 ± 64.4 nM | 30 ± 1.7 nM | 19.4 µM·h | 66.6 µM | 7.52 mL/min/kg | 1.09 h | 0.21 L/kg | –
11 | c1cc(OC2CCNCC2)cc(-c2onc3ccc(-c4nnn[nH]4)cc23)c1 [Compound 12, 3-(3-(Piperidin-4-yloxy)phenyl)-5-(1H-tetrazol-5-yl)benzo[c]isoxazole] | 31.3 ± 4 nM | 4.9 | 153 ± 79.8 nM | 31 ± 4 nM | 10.8 µM·h | 44 µM | 11.8 mL/min/kg | 1.29 h | 0.23 L/kg | –
12 | Clc1cnc(Oc2cccc(-c3onc4ccc(-c5nnn[nH]5)cc34)c2)c(Cl)c1 [Compound 13, 3-(3-((3,5-Dichloropyridin-2-yl)oxy)phenyl)-5-(1H-tetrazol-5-yl)benzo[c]isoxazole] | 72.1 ± 5.2 nM | 1.8 | 129 ± 44.1 nM | – | 7.7 µM·h | 50.5 µM | 15.5 mL/min/kg | 2.01 h | 0.27 L/kg | Vss (L/kg) [6]: increased
